Among the data in ChEMBL document CHEMBL5113389, “Topoisomerase I inhibitors: Challenges, progress and the road ahead” (Eur J Med Chem, 2022) are inhibition, IC50 and Ratio values, retold here.

The target of assay [1] is T1, DNA topoisomerase 1 (Homo sapiens) (UniProt P11387).
T1 sequence (whole entry): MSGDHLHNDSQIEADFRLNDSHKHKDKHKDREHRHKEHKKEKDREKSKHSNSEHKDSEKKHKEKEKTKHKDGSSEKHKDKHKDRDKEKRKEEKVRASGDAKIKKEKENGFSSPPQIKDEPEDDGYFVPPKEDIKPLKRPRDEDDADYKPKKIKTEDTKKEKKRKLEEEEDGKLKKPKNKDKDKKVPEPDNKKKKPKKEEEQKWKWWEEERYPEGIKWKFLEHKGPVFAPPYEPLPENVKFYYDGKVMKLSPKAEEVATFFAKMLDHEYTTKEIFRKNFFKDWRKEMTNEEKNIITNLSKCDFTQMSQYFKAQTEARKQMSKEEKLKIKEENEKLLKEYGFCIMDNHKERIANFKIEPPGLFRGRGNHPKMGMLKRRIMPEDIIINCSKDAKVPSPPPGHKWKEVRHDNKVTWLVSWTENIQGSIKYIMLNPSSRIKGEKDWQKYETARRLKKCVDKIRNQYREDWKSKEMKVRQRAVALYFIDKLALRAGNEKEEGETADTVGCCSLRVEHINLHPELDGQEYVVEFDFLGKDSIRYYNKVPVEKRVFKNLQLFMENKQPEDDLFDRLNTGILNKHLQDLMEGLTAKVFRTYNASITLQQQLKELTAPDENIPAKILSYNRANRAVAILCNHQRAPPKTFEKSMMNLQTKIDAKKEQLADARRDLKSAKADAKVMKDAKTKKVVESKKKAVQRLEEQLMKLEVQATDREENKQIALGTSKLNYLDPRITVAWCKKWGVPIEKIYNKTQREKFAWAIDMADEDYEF
Briefly: Inhibition of full-length recombinant human Top1 expressed in baculovirus infected Sf9 insect cells at 5 uM incubated for 30 mins relative to control.

Assay [2] has as its system RPMI 8402. Briefly: Cytotoxicity against human RPMI 8402 cells assessed as cell growth inhibition measured after 4 days by MTT assay. The class given is functional, cell-based. The note with it: RPMI 8402, 96 h.
Assay [3] is described as follows: Cytotoxicity against human U-937/CR cells assessed as cell growth inhibition incubated for 3 to 4 days by MTT assay. The class given is functional, cell-based. Background: Formazan colour is commonly taken as a measure of viable cells.
The subject of assay [4] is U-937. Briefly: Cytotoxicity against human U-937 cells assessed as cell growth inhibition incubated for 3 to 4 days by MTT assay. The class given is functional, cell-based.
For assay [5], the system named is P388. Put plainly: Cytotoxicity against mouse P388 cells assessed as cell growth inhibition incubated for 3 to 4 days by MTT assay. The assay is classed as functional, cell-based.
For assay [6], the system named is P388CPT45. Put plainly: Cytotoxicity against mouse P388CPT45 cells assessed as cell growth inhibition incubated for 3 to 4 days by MTT assay. The assay is classed as functional, cell-based.
For assay [7], the target named is T1, DNA topoisomerase 1 (Homo sapiens). Put plainly: Inhibition of Top1 in [3H]-Thymidine-labeled human MCF7 cells assessed as Top1-DNA complex formation at 30 uM incubated for 60 mins followed by addition of salmon sperm DNA and subsequent addition of KCl relative to control. The class given is cell-based.
Assay [8] has the same target. Briefly: Inhibition of human Top1 expressed in Escherichia coli assessed as enzyme-mediated DNA cleavage by measuring relative effective concentration incubated for 30 mins relative to topotecan.
Assay [9] concerns K5. Briefly: Cytotoxicity against human camptothecin-resistant K5 cells assessed as cell growth inhibition measured after 4 days by MTT assay. The note with it: K5, 96 h. The assay is classed as functional, cell-based.
In assay [10] the test system is HCT-116. Briefly: Cytotoxicity against human HCT-116 cells assessed as cell growth inhibition measured after 4 days by MTT assay. The class given is functional, cell-based. The note with it: HCT-116, 96 h.
Assay [11] has as its system HCT-116. Put plainly: Cytotoxicity against human HCT-116 cells assessed as cell growth inhibition incubated for 72 hrs by MTT assay. The class given is functional, cell-based. The note with it: HCT-116, 72 h.
The subject of assay [12] is K562. Briefly: Cytotoxicity against human K562 cells assessed as cell growth inhibition incubated for 72 hrs by MTT assay. The assay is classed as functional, cell-based. The note with it: K562, 72 h.
Assay [13] deals with HCT-116. Briefly: Cytotoxicity against human HCT-116 cells assessed as cell growth inhibition incubated for 3 days by SRB assay. The class given is functional, cell-based. The note with it: HCT-116, 72 h. On the technique in general: The SRB assay estimates cell density from bound dye.
Assay [14] relates to MCF7. Put plainly: Cytotoxicity against human MCF7 cells assessed as cell growth inhibition incubated for 3 days by SRB assay. The assay is classed as functional, cell-based. The note with it: MCF7, 72 h.
The test system of assay [15] is P388. Briefly: Cytotoxicity against mouse P388 cells assessed as cell growth inhibition. The class given is functional, cell-based.
Assay [16] has as its system CCRF-CEM. Briefly: Cytotoxicity against human CEM cells assessed as cell growth inhibition. The assay is classed as functional, cell-based.

Regarding `O=c1c2ccccc2nc2n1Cc1cc3c(Br)cccc3nc1-2`, in assay [1], the inhibition amounted to 54%.

Regarding `CN(C)CCn1c(=O)c2ccc([N+](=O)[O-])cc2c2cnc3cc4c(cc3c21)OCO4`, in assay [2], the half-maximal inhibitory concentration (IC50) was found to be 3 nM.

For `COc1cc2ccc3c4cc5c(cc4ncc3c2cc1OC)OCO5`, the IC50 is 50 nM in [3], 40 nM in assay [4], 190 nM in assay [5] and 180 nM in [6].

As to `CN1c2ccccc2C(=O)N2CCc3c([nH]c4ccccc34)C21` (stereo not given), the inhibition in assay [7] worked out at 24.2%.

Consider `CN(C)CCn1c(=O)c2cc([N+](=O)[O-])ccc2c2cnc3cc4c(cc3c21)OCO4`, for which the half-inhibitory concentration (IC50) in assay [2] turned out to be 2 nM. For the same compound, the Ratio in [8] turned out to be 0.1.

On to `COc1cc2c(=O)n(CCN(C)C)c3c4cc([N+](=O)[O-])ccc4ncc3c2cc1OC`, for which the IC50 in assay [2] came out at 18 nM.

Turning to `COc1cc2ncc3c4cc5c(cc4ccc3c2cc1OC)OCO5`, the IC50 in assay [2] came to 4500 nM; in assay [9], 10800 nM.

As to `COc1ccc2c(ccc3c4cc5c(cc4nnc23)OCO5)c1`, the IC50 in [2] was 70 nM; in assay [10], 40 nM.

Consider `O=c1c2ccccc2nc2n1Cc1cc3c(Cl)cccc3nc1-2`, for which the inhibition in assay [1] turned out to be 48%.

Regarding `O=c1c2ccccc2nc2n1Cc1c-2nc2ccccc2c1C(F)(F)F`, the half-inhibitory concentration (IC50) in assay [11] was 17000 nM; in assay [12], 21000 nM.

As to `COc1cc2c(=O)n(CCN(C)C)c3c4cc(N)ccc4ncc3c2cc1OC`, the 50% inhibitory concentration (IC50) in [2] worked out at 40 nM.

Consider `CC[C@@]1(O)C(=O)Cc2c1cc1n(c2=O)Cc2c-1nc1cc3c(cc1c2C1CCC1)OCO3`, for which the IC50 in assay [13] is 6 nM; in assay [14] it was 3 nM.

Consider `COc1cc2c(=O)n(CCN(C)C)c3c4ccc(N)cc4ncc3c2cc1OC`, for which the IC50 in assay [2] was found to be 100 nM.

`O=c1c2ccccc2nc2n1Cc1cc3ccccc3nc1-2`: the inhibition in [1] stood at 18%.

As to `COc1cc2c(=O)n(CCN(C)C)c3c4ccc([N+](=O)[O-])cc4ncc3c2cc1OC`, in [2], the IC50 is 75 nM.

Take `COc1cc(-c2c3c4cc(OC)c(O)cc4oc(=O)c3n3ccc4cc(O)c(OC)cc4c23)ccc1O` [LAMELLARIN D]: the IC50 in assay [15] was found to be 136 nM; in assay [16], 14 nM.

The term inhibition denotes the change of the read-out against control, counted positive when it falls. The term IC50 denotes the concentration that inhibits the measured activity by half.
